Results: patent US6737383B1, “Herbicidal oxadiazolidines” (priority 1999, dated 2004)

Legend:
bedstraw = assay: Test B pre/postemergence bedstraw; format: in vivo, Galium aparine
Procedure, shortened: (§1)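 Herbicidal effect was estimated by eye on a ten-point control scale after plants spent twelve to sixteen days in a greenhouse following soil or foliar treatment. Foliar sprays targeted plants at one to four leaves; all doses were formulated in a non-phytotoxic solvent with surfactant.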

blackgrass = assay: Test B pre/postemergence blackgrass; format: in vivo, Alopecurus myosuroides
Procedure, shortened: as §1

surinam grass = assay: Test B pre/postemergence surinam grass; format: in vivo, Brachiaria decumbens
Procedure, shortened: as §1

cocklebur = assay: Test B pre/postemergence cocklebur; format: in vivo, Xanthium strumarium
Procedure, shortened: as §1

corn = assay: Test B pre/postemergence corn; format: in vivo, Zea mays
Procedure, shortened: as §1

crabgrass = assay: Test B pre/postemergence crabgrass; format: in vivo, Digitaria sanguinalis
Procedure, shortened: as §1

giant foxtail = assay: Test B pre/postemergence giant foxtail; format: in vivo, Setaria faberii
Procedure, shortened: as §1

morningglory = assay: Test B pre/postemergence morningglory; format: in vivo, Ipomoea hederacea
Procedure, shortened: as §1

rape = assay: Test B pre/postemergence rape; format: in vivo, Brassica napus
Procedure, shortened: as §1

soybean = assay: Test B pre/postemergence soybean; format: in vivo, Glycine max
Procedure, shortened: as §1

velvetleaf = assay: Test B pre/postemergence velvetleaf; format: in vivo, Abutilon theophrasti
Procedure, shortened: as §1

wheat = assay: Test B pre/postemergence wheat; format: in vivo, Triticum aestivum
Procedure, shortened: as §1

wild oat = assay: Test B pre/postemergence wild oat; format: in vivo, Avena fatua
Procedure, shortened: as §1

smallflower flatsedge = assay: Test B flood test smallflower flatsedge; format: in vivo, Cyperus difformis
Procedure, shortened: (§2)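 Flood test on plants grown to the 2-leaf stage; treated plants kept in greenhouse twelve to sixteen days, then visually rated against controls on a 0 (no effect) to 10 (complete control) scale.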

duck salad = assay: Test B flood test duck salad; format: in vivo, Heteranthera limosa
Procedure, shortened: as §2

bamyardgrass = assay: Test B flood test barnyardgrass; format: in vivo, Echinochloa crus-galli
Procedure, shortened: as §2

[1] = Postemergence, Rate 125 g/ha, scale 0 to 10, 0 is no effect, 10 is complete control
[2] = Postemergence, Rate 250 g/ha, scale 0 to 10, 0 is no effect, 10 is complete control
[3] = Postemergence, Rate 500 g/ha, scale of 0 to 10 where 0 is no effect and 10 is complete control
[4] = Preemergence, Rate 62 g/ha, scale 0 to 10 (0 no effect, 10 complete control)
[5] = Preemergence, Rate 125 g/ha, scale of 0 to 10 where 0 is no effect and 10 is complete control
[6] = Preemergence, Rate 500 g/ha, scale 0 to 10, 0 is no effect, 10 is complete control
[7] = Rate 62 g/ha, Postemergence, scale of 0 to 10 where 0 is no effect and 10 is complete control
[8] = Preemergence, Rate 250 g/ha, scale of 0 to 10 where 0 is no effect and 10 is complete control
[9] = Preemergence, Rate 250 g/ha, scale 0 to 10, 0 is no effect, 10 is complete control
[10] = Rate 62 g/ha, flood test species, Pre-emergence, visual evaluation after twelve to sixteen days
[11] = Rate 125 g/ha, under heading Pre-emergence, flood test species, visual evaluation after twelve to sixteen days
[12] = Rate 250 g/ha, Pre-emergence, flood-test species, scale 0 to 10, 0 is no effect, 10 is complete control
[13] = Rate 500 g/ha, Pre-emergence, flood test species, scale 0 to 10 (0 no effect, 10 complete control)

CC1CC1Cn1c(=O)on(C(=O)N(c2ccc(F)cc2)C(C)C)c1=O (centres unmarked) [Compound 402]
7: Plant response rating, Bedstraw (bedstraw; [2]) | Plant response rating, Blackgrass (blackgrass; [5])
1: Plant response rating, Cocklebur (cocklebur; [1]) | Plant response rating, Rape (rape; [5]) | Rape plant response rating (rape; [7]) | Soybean plant response rating (soybean; [6]) | Plant response rating, Wild oats (wild oat; [4])
2: Plant response rating, Bedstraw (bedstraw; [4]) | Plant response rating, B. signalgrass (surinam grass; [1]) | Plant response rating, B. signalgrass (surinam grass; [2]) | Morningglory plant response rating (morningglory; [9]) | Morningglory plant response rating (morningglory; [6]) | S. Flatsedge plant response rating (smallflower flatsedge; [13])
8: Bedstraw plant response rating (bedstraw; [3]) | Plant response rating, Giant foxtail (giant foxtail; [1]) | Giant foxtail plant response rating (giant foxtail; [7]) | Plant response rating, Morningglory (morningglory; [2]) | Plant response rating, Rape (rape; [2]) | Rape plant response rating (rape; [6]) | Soybean plant response rating (soybean; [3]) | Velvetleaf plant response rating (velvetleaf; [6]) | Wild oats plant response rating (wild oat; [9]) | Barnyardgrass plant response rating (bamyardgrass; [12])
6: Plant response rating, Soybean (soybean; [2]) | Wheat plant response rating (wheat; [6])
5: B. signalgrass plant response rating (surinam grass; [3]) | Cocklebur plant response rating (cocklebur; [3]) | Plant response rating, Crabgrass (crabgrass; [2]) | Rape plant response rating (rape; [9]) | Plant response rating, Barnyardgrass (0 to 10 scale, 0 is no effect, 10 is complete control) (bamyardgrass; [10]) | Barnyardgrass plant response rating (0 to 10 scale, 0 is no effect, 10 is complete control) (bamyardgrass; [11])
0: Plant response rating, B. signalgrass (surinam grass; [4]) | B. signalgrass plant response rating (surinam grass; [7]) | Plant response rating, Cocklebur (cocklebur; [4]) | Plant response rating, Cocklebur (cocklebur; [5]) | Cocklebur plant response rating (cocklebur; [9]) | Cocklebur plant response rating (cocklebur; [6]) | Cocklebur plant response rating (cocklebur; [7]) | Plant response rating, Corn (corn; [1]) | Plant response rating, Corn (corn; [2]) | Corn plant response rating (corn; [3]) | Plant response rating, Corn (corn; [4]) | Plant response rating, Corn (corn; [5]) | Corn plant response rating (corn; [7]) | Plant response rating, Morningglory (morningglory; [4]) | Plant response rating, Morningglory (morningglory; [5]) | Plant response rating, Rape (rape; [4]) | Plant response rating, Soybean (soybean; [4]) | Plant response rating, Soybean (soybean; [5]) | Soybean plant response rating (soybean; [9]) | Plant response rating, Velvetleaf (velvetleaf; [4]) | Plant response rating, Velvetleaf (velvetleaf; [5]) | Velvetleaf plant response rating (velvetleaf; [7]) | Wheat plant response rating (wheat; [3]) | Plant response rating, Wheat (wheat; [4]) | Plant response rating, Wheat (wheat; [5]) | Wheat plant response rating (wheat; [7]) | Wild oats plant response rating (wild oat; [7]) | Plant response rating, S. Flatsedge (0 to 10 scale, 0 is no effect, 10 is complete control) (smallflower flatsedge; [10]) | S. Flatsedge plant response rating (0 to 10 scale, 0 is no effect, 10 is complete control) (smallflower flatsedge; [11]) | S. Flatsedge plant response rating (smallflower flatsedge; [12]) | Plant response rating, Ducksalad (0 to 10 scale, 0 is no effect, 10 is complete control) (duck salad; [10]) | Ducksalad plant response rating (0 to 10 scale, 0 is no effect, 10 is complete control) (duck salad; [11]) | Ducksalad plant response rating (duck salad; [12]) | Ducksalad plant response rating (duck salad; [13])
4: B. signalgrass plant response rating (surinam grass; [8]) | Plant response rating, Cocklebur (cocklebur; [2]) | Soybean plant response rating (soybean; [7]) | Plant response rating, Velvetleaf (velvetleaf; [2]) | Velvetleaf plant response rating (velvetleaf; [3]) | Plant response rating, Wild oats (wild oat; [5])
3: Plant response rating, Bedstraw (bedstraw; [1]) | Plant response rating, Bedstraw (bedstraw; [5]) | Bedstraw plant response rating (bedstraw; [7]) | Plant response rating, Blackgrass (blackgrass; [4]) | Plant response rating, B. signalgrass (surinam grass; [5]) | Corn plant response rating (corn; [9]) | Plant response rating, Crabgrass (crabgrass; [1]) | Crabgrass plant response rating (crabgrass; [7]) | Morningglory plant response rating (morningglory; [7]) | Velvetleaf plant response rating (velvetleaf; [9]) | Wheat plant response rating (wheat; [9]) | Wild oats plant response rating (wild oat; [3])
10: Bedstraw plant response rating (bedstraw; [6]) | Blackgrass plant response rating (blackgrass; [6]) | Crabgrass plant response rating (crabgrass; [9]) | Crabgrass plant response rating (crabgrass; [6]) | Plant response rating, Giant foxtail (giant foxtail; [4]) | Plant response rating, Giant foxtail (giant foxtail; [5]) | Giant foxtail plant response rating (giant foxtail; [9]) | Giant foxtail plant response rating (giant foxtail; [6]) | Morningglory plant response rating (morningglory; [3]) | Wild oats plant response rating (wild oat; [6])
9: Blackgrass plant response rating (blackgrass; [3]) | Blackgrass plant response rating (blackgrass; [8]) | B. signalgrass plant response rating (surinam grass; Preemergence, Rate 500 g/ha, scale of 0 to 10 where 0 is no effect and 10 is complete control) | Corn plant response rating (corn; [6]) | Crabgrass plant response rating (crabgrass; [3]) | Plant response rating, Crabgrass (crabgrass; [4]) | Plant response rating, Crabgrass (crabgrass; [5]) | Plant response rating, Giant foxtail (giant foxtail; [2]) | Giant foxtail plant response rating (giant foxtail; [3]) | Rape plant response rating (rape; [3]) | Barnyardgrass plant response rating (bamyardgrass; [13])
